Test results reported in the supplement of paper PMC10307832.

Key:
Assay in all cases: relative viability (nuclei count vs DMSO), 5 days (fraction); higher = more cells survive
DM3189 = compound: C1CN(CCN1)C2=CC=C(C=C2)C3=CN4C(=C(C=N4)C5=CC=NC6=CC=CC=C56)N=C3 [DM3189]
Summary of the method: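 On vehicle-anchored 1536-well plates, lung cancer cell lines held overnight at 37 °C were pinned with five library-drug doses (not always all listed) spaced by √10. With no medium change over 5 days, they were then fixed, permeabilised and Hoechst-stained in one step and imaged at 4×. MetaXpress counted nuclei, and viability is the median across plates of treated-well over vehicle-well nuclei. Acceptance needed control CV below 25% and at least one doubling.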

DM3189 + Vorinostat = compound: C1CN(CCN1)C2=CC=C(C=C2)C3=CN4C(=C(C=N4)C5=CC=NC6=CC=CC=C56)N=C3 [DM3189] + O=C(CCCCCCC(=O)Nc1ccccc1)NO [Vorinostat] (partner 1 µM)
Summary of the method: (§1)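 Relative viability is defined as nuclei in treated wells over nuclei in vehicle wells. Duplicate plates were run and medians reported. Lung cancer cell lines in 1536-well plates were dosed by pin tool one day after seeding, with one drug or with a fixed anchor-drug dose plus five library-drug doses (not always all listed) in √10 steps, and nuclei were counted after 5 days.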

DM3189 + Dasatinib = compound: C1CN(CCN1)C2=CC=C(C=C2)C3=CN4C(=C(C=N4)C5=CC=NC6=CC=CC=C56)N=C3 [DM3189] + Cc1nc(Nc2ncc(C(=O)Nc3c(C)cccc3Cl)s2)cc(N2CCN(CCO)CC2)n1 [Dasatinib] (partner 0.075 µM)
Summary of the method: as §1

DM3189 + Lapatinib = compound: C1CN(CCN1)C2=CC=C(C=C2)C3=CN4C(=C(C=N4)C5=CC=NC6=CC=CC=C56)N=C3 [DM3189] + CS(=O)(=O)CCNCc1ccc(-c2ccc3ncnc(Nc4ccc(OCc5cccc(F)c5)c(Cl)c4)c3c2)o1 [Lapatinib] (partner 2 µM)
Summary of the method: as §1

DM3189 + Navitoclax = compound: C1CN(CCN1)C2=CC=C(C=C2)C3=CN4C(=C(C=N4)C5=CC=NC6=CC=CC=C56)N=C3 [DM3189] + CC1(C)CCC(c2ccc(Cl)cc2)=C(CN2CCN(c3ccc(C(=O)NS(=O)(=O)c4ccc(N[C@H](CCN5CCOCC5)CSc5ccccc5)c(S(=O)(=O)C(F)(F)F)c4)cc3)CC2)C1 [Navitoclax] (partner 0.5 µM)
Summary of the method: as §1

Row | Cell Line | relative viability (DM3189; 0.08 µM) | relative viability (DM3189; 0.253 µM) | relative viability (DM3189; 0.8 µM) | relative viability (DM3189; 2.53 µM) | relative viability (DM3189 + Vorinostat; first compound 0.08 µM) | relative viability (DM3189 + Vorinostat; first compound 0.253 µM) | relative viability (DM3189 + Vorinostat; first compound 0.8 µM) | relative viability (DM3189 + Vorinostat; first compound 2.53 µM) | relative viability (DM3189 + Dasatinib; first compound 0.08 µM) | relative viability (DM3189 + Dasatinib; first compound 0.253 µM) | relative viability (DM3189 + Dasatinib; first compound 0.8 µM) | relative viability (DM3189 + Dasatinib; first compound 2.53 µM) | relative viability (DM3189 + Lapatinib; first compound 0.08 µM) | relative viability (DM3189 + Lapatinib; first compound 0.253 µM) | relative viability (DM3189 + Lapatinib; first compound 0.8 µM) | relative viability (DM3189 + Lapatinib; first compound 2.53 µM) | relative viability (DM3189 + Navitoclax; first compound 0.08 µM) | relative viability (DM3189 + Navitoclax; first compound 0.253 µM) | relative viability (DM3189 + Navitoclax; first compound 0.8 µM) | relative viability (DM3189 + Navitoclax; first compound 2.53 µM)
1 | EKVX | 1.21 | 0.949 | 0.887 | 1 | 0.856 | 0.72 | 0.678 | 0.62 | 0.542 | 0.473 | 0.457 | 0.518 | 0.201 | 0.183 | 0.228 | 0.245 | 0.816 | 0.899 | 0.9 | 1.07
2 | A-427 | 1.19 | 1 | 0.93 | 0.947 | 0.941 | 0.791 | 0.801 | 0.816 | 0.765 | 0.78 | 0.684 | 0.732 | 1.08 | 1.03 | 0.983 | 0.929 | 0.937 | 0.936 | 0.893 | 1.13
3 | IA-LM | 1.2 | 1.11 | 1.06 | 1.21 | 0.962 | 1.11 | 1.1 | 1.04 | – | – | – | – | 1.09 | – | 0.855 | 1.02 | 1.22 | 1.22 | 0.951 | 0.987
4 | ChaGo-K-1 | 1.01 | 0.997 | 0.971 | 1 | 0.872 | 0.771 | 0.703 | 0.746 | 0.734 | 0.563 | 0.561 | 0.535 | – | – | – | – | 1.22 | 0.971 | 1.1 | 0.825
5 | NCI-H2342 | 0.988 | 0.99 | 0.948 | 0.97 | 0.702 | 0.692 | 0.843 | 0.668 | 0.291 | 0.3 | 0.299 | 0.332 | – | – | – | – | – | – | – | –
6 | SK-MES-1 | 1.04 | 0.981 | 0.853 | 0.94 | 1.34 | 1.01 | 0.787 | 0.875 | 0.322 | 0.263 | 0.265 | 0.237 | 0.458 | 0.416 | 0.456 | 0.402 | 1.21 | 1.28 | 1.08 | 1.18
7 | LCLC-97TM1 | 1.06 | 0.806 | 0.797 | 0.644 | 0.73 | 0.647 | 0.687 | 0.751 | 0.768 | 0.591 | 0.591 | 0.375 | 0.744 | 0.488 | 0.416 | 0.755 | 0.291 | 0.243 | 0.39 | 0.519
8 | NCI-H441 | 1.26 | 0.955 | 1.02 | 0.981 | 0.879 | 0.772 | 0.885 | 0.674 | 0.69 | 0.581 | 0.625 | 0.513 | – | – | – | – | 0.567 | 0.431 | 0.615 | 0.62
9 | ABC-1 | 1.12 | 0.847 | 0.752 | 0.829 | 1.53 | 0.9 | 1.04 | 0.907 | 0.607 | 0.559 | 0.448 | 0.423 | 1.3 | 1.06 | – | 0.931 | – | – | – | –
10 | NCI-H1792 | 1.27 | 1 | 0.712 | 0.868 | – | – | – | – | 0.547 | 0.899 | 0.716 | 0.927 | 0.973 | 0.919 | 0.674 | 0.431 | 0.584 | 0.601 | 0.443 | 0.23
11 | HCC-44 | 1.05 | 0.957 | 0.869 | 0.934 | 1.08 | 1.14 | 0.921 | 1.08 | – | – | – | – | 1.13 | 0.743 | 0.792 | 1.02 | 1.12 | 1.11 | 0.813 | 1.44
12 | NCI-H1703 | 0.951 | 0.916 | 0.825 | 0.767 | – | – | – | – | – | – | – | – | 1.2 | 1.15 | 1.17 | 1.14 | 1.08 | 1.05 | 1 | 0.709
13 | NCI-H522 | 1.27 | 0.891 | 0.882 | 0.886 | 1.1 | 0.832 | 0.855 | 0.988 | 1.04 | 0.929 | 0.838 | 0.8 | – | – | – | – | – | – | – | –
14 | NCI-H650 | 1.09 | 0.848 | 0.877 | 0.965 | 0.391 | 0.501 | 0.383 | 0.428 | 0.558 | 0.509 | 0.5 | 0.408 | 0.992 | 0.593 | 0.765 | 0.521 | – | – | – | –
15 | SW 900 | 1.06 | 0.694 | 0.882 | 0.887 | 0.469 | – | 0.442 | 0.383 | 0.733 | 0.373 | 0.449 | 0.567 | – | – | – | – | – | – | – | –
16 | NCI-H661 | 1.04 | 0.949 | 1.02 | 1.11 | 0.826 | 0.796 | 0.809 | 0.883 | 1.05 | 0.832 | 0.787 | 0.862 | 0.564 | 0.579 | 0.53 | 0.614 | – | – | – | –
17 | LCLC-103H | 1.06 | 0.935 | 0.951 | 1.02 | 0.816 | 0.8 | 0.734 | 0.744 | 0.607 | 0.457 | 0.393 | 0.339 | – | – | – | – | – | – | – | –
